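Method: 48-hour compound exposure of cells in 96-well plates, five concentrations, linear interpolation of endpoints. GI50 marks 50% less growth.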 Calls of active or inactive are those of the source. Cut-off read from the data, not from the text of the source: active = GI50 up to about 1.1 µM and inactive = higher.
Key:
Experiment in all cases: DTP human tumour cell line panel, 48 h
A549 = test system: A549
CAKI-1 = test system: CAKI-1
HCC 2998 = test system: HCC 2998
HCT-116 = test system: HCT-116
HCT-15 = test system: HCT-15
HOP-92 = test system: HOP-92
KM12 = test system: KM12
NCI-H460 = test system: NCI-H460
OVCAR-4 = test system: OVCAR-4
RPMI-8226 = test system: RPMI-8226
SF-539 = test system: SF-539
SN12C = test system: SN12C
TK-10 = test system: TK-10
K562 = test system: K562
OVCAR-8 = test system: OVCAR-8
UACC-62 = test system: UACC-62

Structure (SMILES) | GI50 (A549) | GI50 (CAKI-1) | GI50 (HCC 2998) | GI50 (HCT-116) | GI50 (HCT-15) | GI50 (HOP-92) | GI50 (KM12) | GI50 (NCI-H460) | GI50 (OVCAR-4) | GI50 (RPMI-8226) | GI50 (SF-539) | GI50 (SN12C) | GI50 (TK-10) | GI50 (K562) | GI50 (OVCAR-8) | GI50 (UACC-62)
Cc1c(C(=O)CSc2nc3ccccc3c(=O)n2-c2ccccc2)c(=O)n(-c2ccccc2)n1C | 64.9 µM (inactive) | 0.185 µM (active) | > 100 µM (inactive) | 68.2 µM (inactive) | > 100 µM | 24.3 µM (inactive) | 54.7 µM (inactive) | 37.8 µM (inactive) | > 100 µM (inactive) | > 100 µM (inactive) | 63.2 µM (inactive) | 97.7 µM (inactive) | 41.9 µM (inactive) | – | – | –
COC1(OC)CCC2C1C1CCC(OC)(OC)C21 (configuration not stated) | > 50 µM (inactive) | > 50 µM (inactive) | > 50 µM (inactive) | > 50 µM (inactive) | > 50 µM | > 50 µM (inactive) | > 50 µM (inactive) | – | > 50 µM (inactive) | > 50 µM (inactive) | > 50 µM (inactive) | > 50 µM (inactive) | – | > 50 µM (inactive) | > 50 µM (inactive) | > 50 µM (inactive)
COC12CCC(C(C(=O)c3ccccc3)=C1C(=O)c1ccccc1)C(O)C2 (configuration not stated) | > 100 µM (inactive) | > 100 µM (inactive) | > 100 µM (inactive) | > 100 µM (inactive) | > 100 µM | > 100 µM (inactive) | > 100 µM (inactive) | – | > 100 µM (inactive) | > 100 µM (inactive) | > 100 µM (inactive) | > 100 µM (inactive) | > 100 µM (inactive) | > 100 µM (inactive) | > 100 µM (inactive) | > 100 µM (inactive)
COC1=CC(=O)C2C(C1=O)[C@@H]1c3ccccc3C[C@H]21 (some centres not stated) | > 100 µM (inactive) | > 100 µM (inactive) | > 100 µM (inactive) | – | > 100 µM | > 100 µM (inactive) | > 100 µM (inactive) | > 100 µM (inactive) | > 100 µM (inactive) | > 100 µM (inactive) | > 100 µM (inactive) | – | > 100 µM (inactive) | > 100 µM (inactive) | 85.3 µM (inactive) | > 100 µM (inactive)
CCCCSC1CCSc2c1ccc1ccccc21 (configuration not stated) | 77.8 µM (inactive) | > 100 µM (inactive) | 65.9 µM (inactive) | 53 µM (inactive) | 6.32 µM | 46.8 µM (inactive) | > 100 µM (inactive) | – | > 100 µM (inactive) | > 100 µM (inactive) | > 100 µM (inactive) | – | > 100 µM (inactive) | 44.9 µM (inactive) | > 100 µM (inactive) | > 100 µM (inactive)
CCOC(=O)C1S/C(=N\c2cccc(Cl)c2C)N=C1C (configuration not stated) | 21.9 µM (inactive) | – | > 10 µM (inactive) | 22.8 µM (inactive) | > 10 µM | 15.1 µM (inactive) | 27 µM (inactive) | 33 µM (inactive) | 31 µM (inactive) | 22 µM (inactive) | 25.6 µM (inactive) | 18.8 µM (inactive) | 35.6 µM (inactive) | 34.1 µM (inactive) | 21.3 µM (inactive) | –
NC(=O)C(N)=O | > 100 µM (inactive) | – | > 100 µM (inactive) | > 100 µM (inactive) | > 100 µM | > 100 µM (inactive) | > 100 µM (inactive) | > 100 µM (inactive) | – | > 100 µM (inactive) | > 100 µM (inactive) | > 100 µM (inactive) | > 100 µM (inactive) | > 100 µM (inactive) | > 100 µM (inactive) | > 100 µM (inactive)
CCC1=C(C)/C(=C/c2[nH]c(C(Br)Br)c(CC)c2C)N=C1C(Br)Br | 25.2 µM (inactive) | – | 12.8 µM (inactive) | 23.8 µM (inactive) | 28.2 µM | 74.1 µM (inactive) | 19.1 µM (inactive) | 26.4 µM (inactive) | – | 9.68 µM (inactive) | 53 µM (inactive) | 31.2 µM (inactive) | 41.2 µM (inactive) | 24.2 µM (inactive) | 26.6 µM (inactive) | 31 µM (inactive)
